From US9533957B2, “Tetrazines and method of synthezising the same” (The Regents of the University of California, priority 2012, dated 2017)
{cycp1} = methylcyclopropene carbamate coupled through the 3' amine; {3AmMO} = amino modifier (IDT nomenclature)

Legend:
[1] = Reaction rate determination of cyclopropenes with tetrazine 3; format: physicochemical
Protocol: A tetrazine 3 stock solution was prepared in DMSO and used to prepare tetrazine solutions at 0.6 mM final concentration in 12% v/v DMSO in ddH2O. Reactions were initiated with excess cyclopropene at final concentrations of 6.0, 8.0, and 10.0 mM. The disappearance of the tetrazine absorption peak at 520 nm was tracked over the reaction timeframe by measuring the absorption spectra using a NanoDrop 2000c spectrophotometer (Thermo Scientific). Samples were placed in a quartz cuvette with 10-mm pathlength and stirred at the maximum speed setting of the instrument. The temperature was uncontrolled by the instrument for room temperature (20° C.) measurements, and set and equilibrated at 37° C. for the higher temperature experiments.
Absorption spectra were measured manually over time. Absorption peak signal was taken as the average of measurements at 519-521 nm. Baseline signal was determined as the sloping line connecting the measured background levels preceding and following the tetrazine peak (410-430 nm and 590-610 nm, respectively). Final peak intensity value was taken as the signal above the baseline. Reaction rates were obtained by fitting the exponential decays of tetrazine peak absorption intensity as a pseudo first order reaction. Nonlinear data fits were performed with GraphPad Prism. Tetrazine reactions with cyclopropene carbamate 5 were carried out at 20 and 37° C. (data points and corresponding fitted curves at 20° C. in FIG. 51, 37° C. in FIG. 2c). Tetrazine reactions with cyclopropene carboxamide 2 were done at 37° C. ([…]. A representative comparison fit is shown for cyclopropenes 5 and 2 at 8.0 mM concentration reacting at 37° C. with 0.6 mM tetrazine.

[2] = Storage stability of cyclopropene derivatives; format: physicochemical; conditions: stored at −20° C.
[3] = Stability of cyclopropene 5 by 1H NMR; format: physicochemical; conditions: 37° C., over 24 hours
Protocol: Cyclopropene 5 was kept at 37° C. in D2O: DMSO-d6=10:1 and 1H NMR was taken over a period of 24 h at the following time points: 0.0, 0.5, 1.0, 1.5, 3.0, 6.0 and 24.0 h. By comparing the peak abundance of the cyclopropene alkene proton (6.21 ppm) at different time points, we determined the stability of cyclopropene 5 (Figure S2).

SKBR3 cells [4] = assay: Live-cell microscopy of metabolically incorporated cyclopropene sugar; format: cell-based, human; conditions: SKBR3; 100 μM for 48 hours, then 10 μM tetrazine-Alexa Fluor 488 for 1 hour
Protocol: (§1) SKBR3 and LS 174T cells were grown in cDMEM media supplemented with 10% fetal bovine serum, 1% L-glutamine, 1% penicillin/streptomycin. Cells were incubated in 5.0% carbon dioxide, 95% humidity at 37° C. Generally, cells were grown in T-75 tissue culture flasks, seeded at densities between 500,000 and 750,000 cells per flask (cells were quantified with the Life Technologies Countess automated cell counter). The cells were trypsinized with TrypLE Express and resuspended in cDMEM. Cells were allowed to incubate for two days before supplementing with Ac4ManNCyc (N-cyclopropeneacetylmannosamine) or Ac4GlcNAz (N-azidoacetylglucosamine). The cells were then analyzed via confocal microscopy and flow cytometry as described below.
(§2) The SKBR3 and LS174T cells were incubated for two days in the presence of 100 μM of Ac4ManNCyc and/or 50 μM Ac4GlcNAz on a Lab-Tek chamber slide maintained in cDMEM medium. Treatment of cells with tunicamycin was done by preparing a 0.2 mg/mL stock in DMSO, which was diluted to a final working concentration of 1.2 μM tunicamycin in cDMEM (0.5% DMSO). Cells were washed 3× with phosphate-buffered saline (PBS) and incubated for 1 hour at 37° C. in 10 μM tetrazine-BODIPY TMR-X, 10 μM tetrazine-Alexa flour 488 and/or 15 μM dibenzocyclooctyne (DIBO)-Alexa Fluor 647 in cDMEM. The media was aspirated, and cells were washed twice with PBS before imaging. All photos were collected with an Olympus FV1000 confocal microscope using ImageJ 1.45j software package.
(§3) In order to determine if Ac4ManNCyc was incorporated effectively by cells, we incubated adherent human breast cancer (SKBR3) and colon cancer (LS174T) cell lines with 100 μM Ac4ManNCyc for 48 hours in cell media and serum. After incubation, cells were thoroughly washed and then reacted for 1 hour with 10 μM of fluorogenic Alexa Fluor 488 tetrazine. After a second wash, cells were imaged by confocal microscopy (Olympus FV1000). […] In order to ensure that the staining was due to glycan uptake of the probe, we also performed controls by exposing cells to 100 μM Ac4ManNCyc and inhibiting uptake by using glycosylation inhibitors (ie. tunicamycin and αBnGalNAc) or 20 mM of ManNAc as a competitive substrate.^[14] […] These experiments provide evidence that the staining patterns are reporting on glycosylation and uptake of the unnatural cyclopropene mannosamine. We also performed additional studies using flow cytometry to quantitate the relative uptake of sugars that corroborated the imaging data.

LS174T cells = assay: as above; format: cell-based, human; conditions: 100 μM for 48 hours, then 10 μM tetrazine-Alexa Fluor 488 for 1 hour
Protocol: as §1, §2, §3

SKBR3 cells [5] = assay: Analysis of cell surface cyclopropenes by flow cytometry; format: cell-based, human; conditions: followed by tetrazine imaging probe
Protocol: After the incubating the adherent SKBR3 cells in 100 μM of Ac4ManNCyc (1.2 μM tunicamycin and/or 1 mM aBnGalNAc was used in experiments requiring glycosylation inhibitors) they were washed twice in PBS and then incubated in 10 μM of tetrazine-Alexa flour 488 for 1 hour at 37° C. Control cells were not exposed to Ac4ManNCyc and incubated in 10 μM of tetrazine-Alexa flour 488 for 1 hour at 37° C. Cells were then resuspended in 1-2 ml of cDMEM (5.0×10^5 to 1.0×10^6 per ml) using a rubber policeman. The cells were passed through a 25 gauge syringe to ameliorate excessive clumping, and subjected to analysis by flow cytometry using a 200 mW 488 nm blue solid state laser on the Partec Space Flow Cytometer (Partec).

[6] = system: LS174T human colon cancer cells; assay: Simultaneous imaging of two metabolically incorporated unnatural sugars and cross reactivity; format: cell-based
Protocol: as §2
Finally, we tested whether or not we could simultaneously image two different metabolically incorporated unnatural sugar derivatives, Ac4ManNCyc and tetraacetylated N-azidoacetylgalactosamine (Ac4GalNAz). […] Recent experimental work has shown that alkenes and azides can be mutually orthogonal to each other, even when using highly strained trans-cyclooctenes. Additionally, the Houk group has calculated that methyl-cyclopropene handles, such as those we have previously developed, should be mutually orthogonal to azide cyclooctyne reactions. We incubated LS174T human colon cancer cells with 100 μM Ac4ManNCyc and Ac4GalNAz for 2 days. After incubation, we sequentially stained the cells with 10 μM tetrazine-Alexa Fluor 488 and 15 μM dibenzocyclooctyne (DIBO) 647. […] Similar results were obtained with the SKBR3 cell line. […] The ability to simultaneously label two different metabolically incorporated molecules using live-cell compatible inverse-Diels-Alder and Huisgen reactions expands the capabilities of bioorthogonal metabolic imaging.

[7] = Fluorescence turn-on spectroscopy of tetrazine-Alexa Fluor 488 with Ac4ManNCyc; format: physicochemical
Protocol: Mannosamine-cyclopropene (Ac4ManNCyc) and tetrazine-Alexa-Fluor 488 stocks were prepared at 1 and 0.1 mM, respectively, in phosphate-buffered saline (PBS) pH 7.4. Fluorescence turn-on was measured using a Perkin Elmer LD-45 spectrometer, with the excitation wavelength set to 480/5 nm, and emission scanned over 490-620 nm (5-nm slit width) at a rate of 50 nm/min. Reaction conditions were 50 μM tetrazine-Alexa-Fluor 488 and 100 μM Ac4ManNCyc in PBS pH 7.4 buffer at room temperature.

27mer DNA template [8] = assay: Melting temperatures of DNA template with probes and ligation products; format: physicochemical; conditions: hybridization target against 27mer template; 250 mM NaCl in buffer; 1 μM each oligonucleotide
Protocol: Melting temperature of probes and ligation products in hybridization buffer (50 mM MOPS pH 7.5, 250 mM NaCl) were measured using a Beckman-Coulter DU 640 spectrophotometer equipped with a high performance temperature controller and micro auto six-cell holder. Samples at 1 μM concentration of each oligonucleotide were heated to 90° C. and slowly cooled to RT over 1-1.5 h before the measurements. Melting temperature values were obtained by cooling samples from 90° C. to 20° C. at the rate of 1° C./min and measuring at 1° C. increments with each read averaged over 1 s.

[9] = system: singly-mismatched 27mer template; assay: Single nucleotide mismatch discrimination in probe ligation; format: biochemical; conditions: 5 mM MgCl2 in Tris-borate buffer at 37° C.; reaction with 13merF15′tet
Protocol: (§4) Tetrazine and cyclopropene-modified oligonucleotide probes were ligated in the presence of a DNA or RNA template at a 1:1:1 ratio. Reactions were done in varying solution and temperature conditions, as indicated. Main hybridization buffer was 50 mM MOPS at pH 7.5, 250 mM NaCl. Ligation reactions with a mismatched DNA template were performed in 5 mM MgCl2 in standard 1× Tris-borate buffer (purchased as 10× UltraPure TBE from Invitrogen: 1.0 M Tris pH 8.4, 0.9 M Boric acid, 10 mM EDTA).
A single nucleotide mismatch effect was determined on reaction completion in discriminating conditions from FIG. 2C and is depicted in Figure S8. TBE 1× buffer (pH 8.4, Invitrogen) with 5 mM MgCl2 solution at 37° C. was used for incubation of 13mer5′tet with 13mer3′cycp1 in the presence of a fully matched template, or a sample containing a fully matched template and a single mismatched template, and a sample with only a singly-mismatched template. All DNA concentrations were kept at 1 μM. Fluorescence measurements were taken using a Perkin Elmer LD-45 spectrophotometer, as described above, with the samples in the quartz cuvettes warmed with attached circulating water bath. Initial timepoints were taken of prewarmed samples prior to template addition, and subtracted from the final intensity values (Figure S8).

27mer RNA template = assay: Ligation of oligonucleotide probes with an RNA template; format: biochemical; conditions: ligating 13merF15′tet and 13mer3′cycp1
Protocol: as §4
Ligation reactions were done in standard 96 fluorescence well plates using SpectraMax GeminiXS (Molecular Devices). Temperature was set by the instrument. Where indicated by standard deviations, experiments were performed multiple times. In order to avoid any secondary structure artifacts, DNA or RNA template with added tetrazine probe was first heated to 90° C. and crash-cooled on ice for 2 min right before the experiment. Each well was filled with a total of 100 μL reaction solution, and reactions were timed from the addition of the cyclopropene probe as the last step before starting the measurements. […] Buffer-only well intensities were subtracted from the measured raw data before analysis. Data was analyzed using GraphPad Prism 6.0 by applying a nonlinear fit of a one-phase association to each curve where fluorescein signal during reaction was measured.

27mer DNA template [10] = assay: Template-driven ligation of tetrazine and cyclopropene oligonucleotide probes (fluorescence); format: biochemical
Protocol: as §4
Ligation reactions were done in standard 96 fluorescence well plates using SpectraMax GeminiXS (Molecular Devices). Temperature was set by the instrument. Where indicated by standard deviations, experiments were performed multiple times. In order to avoid any secondary structure artifacts, DNA or RNA template with added tetrazine probe was first heated to 90° C. and crash-cooled on ice for 2 min right before the experiment. Each well was filled with a total of 100 μL reaction solution, and reactions were timed from the addition of the cyclopropene probe as the last step before starting the measurements. Wells were scanned every 20-60 s depending on the speed of the reactions by using 485 nm excitation and 538 nm emission with the cutoff set at 495 nm. Control reactions without template were done in parallel each time. Buffer-only well intensities were subtracted from the measured raw data before analysis. Data was analyzed using GraphPad Prism 6.0 by applying a nonlinear fit of a one-phase association to each curve where fluorescein signal during reaction was measured.

## 2-methyl-cyclopropene carbamate [cyclopropene 5]
[1]; 20° C., 12% DMSO by volume
  rate constant: 7 ± 1 M⁻¹ s⁻¹
[1]; 37° C.
  improvement of rate constant compared to cyclopropene carboxamide 2: approximately two orders of magnitude
[1]; 37° C., water/DMSO (12% DMSO by volume)
  second order rate constant: 13 ± 2 M⁻¹ s⁻¹
[2]
  storage stability at −20° C.: without degradation
[3]
  degradation in aqueous solutions: no significant degradation

## 1,3,4,6-Tetra-O-acety-N-cyclopropene tag-D-mannosamine [Ac4ManNCyc]
SKBR3 cells [4]
  cell surface staining by confocal microscopy: bright surface staining
LS174T cells
  cell surface staining by confocal microscopy: bright surface staining
SKBR3 cells [5]
  fluorescence intensity by flow cytometry compared to controls: increased fluorescence intensity
[6]; 100 μM, 2 days, stained with 10 μM tetrazine-Alexa Fluor 488 and 15 μM DIBO 647
  cell surface staining after co-incubation of both sugars: cell surface staining in both the fluorescent channels
[6]; cells incubated with only this sugar
  cross reactivity: surface staining with DIBO 647: minimal surface staining
[7]
  fluorogenic response of quenched tetrazine probe: elicits fluorogenic responses

## 13mer3′cycp1: 5′-ATT CAA CAC TAC C/3AmMO/-cyclopropene-3′ (SEQ ID NO:5), methyl-cyclopropene carbamate cycp1 (DNA ATTCAACACTACC; DNA, 3' {3AmMO}-{cycp1}, backbone not given here)
27mer DNA template [8]
  Melting T: 50.4 °C
[9]
  effect of single mismatch (T to G) in template on reaction rate: only a moderate difference
27mer RNA template
  ligation with RNA template compared with DNA template: equally effective
27mer DNA template [10]; disappearance of 13merF15′tet and appearance of product
  reaction yield by LC/MS: approximately 92%
27mer DNA template [10]; estimated assuming the reaction is limited by ligation
  effective molarity of the intramolecular reaction: 53 mM
27mer DNA template [10]; reaction with 13merF15′tet in the presence of DNA template
  observed first order rate constant of DNA-templated reaction: 0.019 ± 0.001 s⁻¹
27mer DNA template [10]; reaction with 13merF15′tet, 1 μM 27mer template
  time at which the fluorescence signal plateaus: about 200 s
